Several values for one entry are separate records, joined by “and”; a condition that tells them apart may be missing. Equal values may be shown once. Entries after “also recorded” stand apart in the source; their conditions may differ. Read-outs that look alike come from different tables or passages of the source.

One may read the AUC(0-t) as the area under the concentration-time curve up to a stated or last time point. Broadly, the AUC(0-inf) is the area under the concentration-time curve extrapolated to infinity. Read a high AUC(0-inf) as high exposure. For orientation: Tmax means the time at which the peak concentration occurs. One may read the half-life as the time needed for the level to fall by half in the phase considered.

Series [1] has as its system autoluminescent M. tuberculosis H37Rv (AlRv). The class given is in vivo, Mycobacterium tuberculosis.
Series [2] shares this test system. Format: in vivo, Mycobacterium tuberculosis. The source holds these as a separate data set.
The subject of the next series is M. tuberculosis. Conditions: stated without method or reference; cited from earlier work.
Series [3] in a line: in vivo. Conditions: mouse, inhaled or intranasal.
The nature of series [4]: in vivo. Conditions: mouse, inhaled or intranasal. This is another data set of the same source.
A short description of series [5]: Pharmacokinetics in lung via inhalation. The following applies: for duration lung concentration above in vitro MIC against M. tuberculosis: lung tissue, inhalation.
Series [6] can be described thus: Pharmacokinetics in plasma via inhalation. Conditions: for duration plasma concentration exceeded in vitro MIC against M. tuberculosis / peak concentration in plasma / AUC(0-t) / AUC(0-inf) / Tmax: mice.
Details of series [7]: method as in Grewal et al., 2018; Grosset et al., 1992; Lyons et al., 2013. Conditions: mice, oral administration; ref Grewal et al., 2018; Grosset et al., 1992; Lyons et al., 2013; cited from earlier work.
The next series relates to AlRv. The series is described as follows: Published inhalation administration method using a syringe-like device in mice infected with AlRv. The class given is in vivo, Mycobacterium tuberculosis. The following applies: unpublished data. The source says:
To date, four primary research reports, encompassing three inhalation administration models, have explored the detection of anti-TB drug efficacy through airway administration ([Garcia-Contreras et al., 2007]; [Garcia-Contreras et al., 2010]; [Gonzalez-Juarrero et al., 2012]; [Verma et al., 2013]). Among these studies, only two have employed murine models for their investigations. Supplementary Table S1 presents a comprehensive comparison of the advantages and disadvantages of each report relative to our study. Compared to these existing inhalation administration model, our innovative method achieves several improvements. Firstly, it is cost-effective and user-friendly, employing mice instead of larger animals. Secondly, it eliminates the need for anesthesia in mice during administration, simplifying the instrument operation. We also endeavored to utilize a published inhalation administration method using a syringe-like device in mice infected with AlRv. However, we encountered significant challenges in administering drugs daily due to the development of swollen throats in the mice ([Gonzalez-Juarrero et al., 2012]). […] Thirdly, the results obtained are relatively objective and repeatable, thereby minimizing the influence of human factor. Fourthly, the same treatment group, consisting of six mice, is administrated daily and simultaneously. […]

Setting [8] is: mice, RIF 2, INH 0.5, EMB 10 mg/mL.
Setting [9] is: inhalation, RIF 2, INH 0.5, EMB 10 mg/mL.
Setting [10] is: […], RIF 2, INH 2, EMB 10 mg/mL, lungs D18.
The mark [11] stands for this setting: lung, mice, single inhalation, RIF 2, INH 0.5, EMB 10 mg/mL.
Setting [12] is: mouse, lung, inhaled or intranasal, AUC0-t, mice, single inhalation 25 min, RIF 2, INH 0.5, EMB 10 mg/mL.
The mark [13] stands for this setting: mouse, lung, inhaled or intranasal, Tmax, mice, single inhalation 25 min, RIF 2, INH 0.5, EMB 10 mg/mL.
[14] abbreviates: mouse, lung, inhaled or intranasal, time of peak concentration in lung post-administration, mice, single inhalation, RIF 2, INH 0.5, EMB 10 mg/mL.
Where [15] appears, read: single inhalation, RIF 2, INH 0.5, EMB 10 mg/mL.
The mark [16] stands for this setting: mouse, inhaled or intranasal, AUC0-t in plasma, inhalation, t = 4 h for INH and 24 h for RIF and EMB.
Where [17] appears, read: mouse, inhaled or intranasal, AUC0-t, single inhalation 25 min, RIF 2, INH 0.5, EMB 10 mg/mL, t = 4 h for INH, 24 h for RIF and EMB.
Where [18] appears, read: mouse, inhaled or intranasal, AUC0-∞ in plasma, inhalation.
The mark [19] stands for this setting: mouse, inhaled or intranasal, AUC0-∞, single inhalation 25 min, RIF 2, INH 0.5, EMB 10 mg/mL.
The mark [20] stands for this setting: mouse, inhaled or intranasal, time of peak concentration in plasma post-administration, single inhalation, RIF 2, INH 0.5, EMB 10 mg/mL, first sampling point 5 min.

Take `CO[C@H]1/C=C/O[C@@]2(C)Oc3c(C)c(O)c4c(O)c(c(/C=N/N5CCN(C)CC5)c(O)c4c3C2=O)NC(=O)/C(C)=C\C=C\[C@H](C)[C@H](O)[C@@H](C)[C@@H](O)[C@@H](C)[C@H](OC(C)=O)[C@@H]1C` [RIF, rifampicin]: the “lung CFUs compared with BT group” value in series [1] (in vivo) was “higher”. Moreover, in [2] (in vivo), the “bactericidal activity by lung suspension RLU and CFU” value is recorded as “failed to demonstrate bactericidal activity”; the “log10CFUs/lung difference to solvent group” value (shortened to “log10CFUs/lung difference”) was “exceeding 1.5 log10CFUs/lung”; the “log10RLUs/lung difference to solvent group” value is on record as “exceeding 1.5 log10RLUs/lung”; the “lowest inhaled concentration showing anti-M. tuberculosis activity in vivo” value was determined as 0.5 mg/mL. Moreover, in series [2] (in vivo), the “lung CFUs compared with solvent group” value is “slightly significantly lower; also recorded: approximately comparable” and the “lung RLUs compared with solvent group” value was “comparable”. The “in vitro minimum inhibitory concentration (MIC)” value with M. tuberculosis was 0.06 µg/mL. For the same compound, the AUC(0-t) in the series “in vivo [3]” (AUC0-t in plasma) turned out to be 19000 ng·h/mL. This compound also came in with an AUC(0-inf) in the series “in vivo [3]” (AUC0-∞ in plasma) of 21000 ng·h/mL. In addition, the Tmax in “in vivo [3]” (Tmax) was 4.8 min. For the same compound, in “in vivo [3]” (time of peak concentration in plasma post-administration), the Tmax is 5 min. Besides, the Tmax in “in vivo [4]” (Tmax) is 4.8 min. For the same compound, in “in vivo [4]” (time of peak concentration in lung post-administration), the Tmax is 5 min. Besides, the “duration lung concentration above in vitro MIC against M. tuberculosis” value (“duration lung concentration above” for short) in series [5] (setting [8]) is reported as “approximately 24 h”. In addition, the “duration plasma concentration exceeded in vitro MIC against M. tuberculosis” value (“duration plasma concentration exceeded” below) in [6] (setting [9]) is listed as “approximately 24 h”.
On to `CC[C@@H](CO)NCCN[C@@H](CC)CO` [EMB, ethambutol], for which the “lung CFUs compared with BT group” value in [1] (setting [10]) is given as “almost similar”; in [2] (in vivo), “nearly identical”. The “lung RLUs compared with BT group” value in [1] (setting [10]) is given as “nearly identical”; in [2] (in vivo), “equivalent”. Besides, the “live RLUs compared with solvent group” value in [2] (in vivo) was “significantly lower”. Further, the “log10CFUs/lung difference” value in series [2] (in vivo) is given as “exceeding 1.5 log10CFUs/lung”. Moreover, the “lowest inhaled concentration showing anti-M. tuberculosis activity in vivo” value in series [2] (in vivo) is listed as 0.625 mg/mL. Also, the “lung CFUs compared with solvent control” value in series [2] (in vivo) was “significantly reduced”. The “lung RLUs compared with solvent group” value in series [2] (in vivo) was “less significant differences”. Also, the “in vitro minimum inhibitory concentration (MIC)” value in the series with M. tuberculosis was 2.00 µg/mL. The “time of highest plasma concentration post-administration” value in series [7] is 1.33 h. In addition, the “duration lung concentration above” value in series [5] (setting [8]) is approximately 10 h. The “peak concentration in lung” value in series [5] (setting [11]) amounted to 10.94 ± 1.63 µg/g. Further, the half-life in [5] (mouse, lung, inhaled or intranasal) was 274 min; in series [6] (mouse, inhaled or intranasal) it was 170 min. In addition, the AUC(0-t) in series [5] (setting [12]) is 47300 ng·h/mL; in [6] (setting [16]) it was 103000 ng·h/mL; in [6] (setting [17]), 103000 ng·h/mL. Further, the AUC(0-inf) in series [5] (mouse, lung, inhaled or intranasal, AUC0-∞, mice, single inhalation 25 min, RIF 2, INH 0.5, EMB 10 mg/mL) came out at 48700 ng·h/mL; in series [6] (setting [18]), 103000 ng·h/mL; in series [6] (setting [19]), 103000 ng·h/mL. The Tmax in [5] (setting [13]) is 4.8 min; in series [5] (setting [14]), not above 5 min; in [6] (mouse, inhaled or intranasal, Tmax, single inhalation 25 min, RIF 2, INH 0.5, EMB 10 mg/mL), 4.8 min; in series [6] (setting [20]), not above 5 min. Further, the “duration plasma concentration exceeded” value in series [6] (setting [9]) is approximately 14 h. In addition, in [6] (setting [15]), the “peak concentration in plasma” value was 28.64 ± 16.80 µg/mL and 28.64 ± 16.8 µg/mL.
In the case of `NNC(=O)c1ccncc1` [INH, isoniazid], the “lung CFUs compared with BT group” value in series [1] (setting [10]) and in series [2] (in vivo) was “lower” in each case. Further, the “lung RLUs compared with BT group” value is listed as “slightly lower” in series [1] (setting [10]) and “comparable” in series [2] (in vivo). Moreover, the “colonies on plates of lung suspension” value in series [2] ([…], only a fraction of the lung suspension plated) is recorded as “no colonies were observed”. Also, in series [2] (in vivo), the “log10CFUs/lung difference” value is “exceeding 1.5 log10CFUs/lung”. Moreover, the “log10RLUs/lung difference to solvent group” value in series [2] (in vivo) is listed as “exceeding 1.5 log10RLUs/lung”. The “lowest inhaled concentration showing anti-M. tuberculosis activity in vivo” value in [2] (in vivo) worked out at 0.5 mg/mL. Further, the “lung RLUs compared with solvent group” value in series [2] (in vivo) is on record as “similar”. Further, the “RLUs compared with untreated control and the same mice the day before administration” value with AlRv was “reduced RLUs”. Also, the “in vitro minimum inhibitory concentration (MIC)” value in the series on M. tuberculosis was 0.13 µg/mL. Moreover, the “time of highest plasma concentration post-administration” value in [7] is given as 0.25 h. The time to peak (Tmax) in “in vivo [3]” is 4.8 min; in series [5] (setting [13]) it was 15 min; in series [5] (setting [14]), not above 15 min; in series [6] (setting [20]), not above 5 min. In addition, in series [5] (setting [8]), the “duration lung concentration above” value is approximately 0.5 h. In addition, the “concentration in the lungs 30 min post-administration” value in series [5] (lung, mice, inhalation 0.5 mg/mL, 30 min post-administration) was “nearly undetectable; also recorded: near-zero”. Moreover, the “peak concentration in lung” value in series [5] (setting [11]) was determined as 2.52 ± 0.81 µg/g. For the same compound, the AUC(0-t) in series [5] (mouse, lung, inhaled or intranasal, 0.5 mg/mL, AUC0-t in the lungs, mice, inhalation 0.5 mg/mL) was 340 ng·h/mL; in [5] (setting [12]), 337 ng·h/mL; in series [6] (setting [16]) it was 1570 ng·h/mL; in series [6] (setting [17]), 1570 ng·h/mL. Also, the “duration plasma concentration exceeded” value in series [6] (setting [9]) is reported as approximately 3 h. The “peak concentration in plasma” value in series [6] (setting [15]) came to 2.66 ± 0.29 µg/mL. Moreover, the AUC(0-inf) in [6] (setting [18]) and in [6] (setting [19]) was 1790 ng·h/mL throughout.
